Experimental findings from patent US8304422B2, “Compositions and methods for inhibition of the JAK pathway” (Rigel Pharmaceuticals, Inc., priority 2007, dated 2012) are described below.

The experiment has as its system BaF3 V617F cells; UKE-1. Kind of experiment: Proliferation Assay (Cell Titer-Glo; Example 7). Conditions: proliferation 72 hours, inhibit JAK2 activity, cell line (BaF3 V617F or UKE-1) not stated. It is filed as cell-based. How it is done: BaF3 V617F cells are maintained and plated in RPMI with 10% FBS. Plating density for these cells is 1×10^5 cells/mL.
UKE-1 are maintained and plated in Iscove's DMEM containing 10% FBS, 10% equine serum, 1% penicillin/streptomycin and 1 uM hydrocortisone. Plating density for these cells is 0.4×10^6 cells/mL
The cells were resuspended in a corresponding medium at a required cell density (see above). 100μ of cell suspension was added to each well of a flat bottom 96 well white plate. The compound was serially diluted in DMSO from 5 mM in 3-fold dilutions, and then diluted 1:250 in the RPMI 1640 medium containing 5% FBS and pen/strep. 100 μL of resulting 2× compound solution was added per well in duplicate and the cells were allowed to proliferate for 72 hours at 37° C.
Proliferation was measured using Cell Titer-Glo. The substrate was thawed and allowed to come to room temperature. After removal of top 100 μL of medium from each well, 100 μL of the premixed Cell Titer-Glo reagent was added to each well. The plates were mixed on an orbital shaker for three minutes to induce lysis and incubated at ambient temperature for an additional five minutes to allow the signal to equilibrate. The Luminescence was read on the Wallac Plate Reader.
The results of the ability of the compounds of the invention to inhibit JAK2 activity, when tested in the above assay, are shown in the following Table XI wherein the level of activity (i.e., the IC50) for each compound is indicated in Table XI. The compound numbers in Table XI refers to the compounds disclosed herein as being prepared by the methods disclosed herein: […]
Background: Cellular ATP, detected with luciferase, serves as a proxy for viable cell number.
By IC50 is commonly meant the concentration that gives 50% inhibition. Read a low IC50 as greater potency. Compound `Cc1cc(Nc2ncc(C)c(Nc3ccc(CNS(=O)(=O)NC4CC4)cc3)n2)ccc1N1CCN(C)CC1` [II-172, N4-[4-((N-Cyclopropylamino)sulfonylamino)methylphenyl]-5-methyl-N2-[3-methyl-4-(4-methyl-1-piperazinyl)phenyl]-2,4-pyrimidinediamine] displayed an IC50 of 2260 nM.
Take “5-Chloro-N2-[3,4-dimethyl-4-(2-(4-morpholinyl)ethoxy)phenyl]-N4-[4-((N-cyclopropylamino)sulfonylamino)methylphenyl]-2,4-pyrimidinediamine [II-170]”: the midpoint of inhibition, the IC50, lay at 40.2 nM.
The compound `Cc1cnc(Nc2ccc(S(=O)(=O)C(F)(F)F)cc2)nc1Nc1ccc(CCNS(=O)(=O)C2CC2)cc1` [II-59] gave an IC50 of 3140 nM.
For “(1R)—N2-(3,5-Dichloro-4-methoxyphenyl))-5-methyl-N4-[1-(methylsulfonyl)aminoindan-6-yl]-2,4-pyrimidinediamine [V-13]” the value was 19300 nM.
In turn, `CCNS(=O)(=O)NCc1ccc(Nc2nc(Nc3cc(OC)c(OC)c(OC)c3)ncc2C)cc1` [II-120, N4-[(4-(Ethylamino)sulfonylamino)methylphenyl]-5-methyl-N2-(3,4,5-trimethoxyphenyl)-2,4-pyrimidinediamine] yielded an IC50 of 871 nM. This IC50 is about 22-fold lower than that of the compound before.
In turn, `Cc1cnc(Nc2cnccc2N2CCN(C)CC2)nc1Nc1ccc(CNS(=O)(=O)C2CC2)cc1` [II-215, 5-Methyl-N4-[4-(N-cyclopropylsulfonylamino)methylphenyl]-N2-[4-(N-methylpiperizin-4-yl)pyridine-3-yl]-2,4-pyrimidinediamine] registered an IC50 of 1520 nM.
Turning to `CCNS(=O)(=O)NCc1ccc(Nc2nc(Nc3ccc(C4CCN(C)CC4)cc3)ncc2C)cc1` [II-124, N4-[(4-(Ethylamino)sulfonylamino)methylphenyl]-5-methyl-N2-[4-(1-methyl-4-piperidinyl)pheny]-2,4-pyrimidinediamine], the IC50 was found to be 1160 nM. The IC50 values of the last two compounds are within 1.5-fold of each other.
For `Cc1cc(Nc2ncc(C(F)(F)F)c(Nc3ccc(CNS(=O)(=O)C4CC4)cc3)n2)ccc1N1CCN(C)CC1` [II-128, N4-[4-(N-Cyclopropylsulfonylamino)methylphenyl]-N2-[3-methyl-4-(4-methyl-1-piperazinyl)phenyl]-5-trifluoromethyl-2,4-pyrimidinediamine], the IC50 was 755 nM.
For the compound `CN1CCC(c2ccc(Nc3ncc(Cl)c(Nc4ccc(CNS(=O)(=O)C5CC5)cc4)n3)cc2)CC1` [II-187, 5-Chloro-N4-[4-(N-cyclopropylsulfonylaminomethyl)phenyl]-N2-[4-(N-methylpiperidin-4-yl)phenyl]-2,4-pyrimidinediamine], inhibition was half-maximal at 293 nM (IC50).
For the compound `Cc1cc(CNS(=O)(=O)NC2CC2)ccc1Nc1nc(Nc2ccc(N3CCN(C)CC3)c(C)c2)ncc1Cl` [II-181, 5-Chloro-N4-[2-methyl-4-((N-cyclopropylamino)sulfonylamino)methylphenyl]-N2-[3-methyl-4-(4-methyl-1-piperazinyl)phenyl]-2,4-pyrimidinediamine], the IC50 came to 4330 nM.
For `CC1CN(CCOc2ccc(Nc3ncc(Cl)c(Nc4ccc(CCNS(=O)(=O)C5CC5)cc4)n3)cc2)CC(C)O1` (stereo not shown) [II-49] the value was 339 nM; for `O=S(=O)(NCc1ccc(Nc2nc(Nc3ccc(-c4cccnc4)cc3)ncc2Cl)cc1)C1CC1` [II-193, 5-Chloro-N4-[4-(N-cyclopropylsulfonylamino)methylphenyl]-N2-[4-(3-pyridinyl)phenyl]-2,4-pyrimidinediamine], 1300 nM; for `CCNS(=O)(=O)NCc1cccc(Nc2nc(Nc3ccc(N4CCN(C)CC4)cc3)ncc2C)c1` [II-135, N4-[(3-(Ethylamino)sulfonylamino)methylphenyl]-5-methyl-N2-[4-(4-methyl-1-piperazinyl)phenyl]-2,4-pyrimidinediamine], 267 nM.
For `COc1cc(Nc2ncc(C)c(Nc3ccc4c(c3)[C@H](NS(C)(=O)=O)CC4)n2)cc(OC)c1OC` [V-9], the IC50 came out at 2200 nM. Compared with the last compound, the IC50 is about 8.2-fold higher.
`COc1cc(Nc2ncc(Cl)c(Nc3ccc(CNS(=O)(=O)N(C)C)cc3)n2)cc(C)c1OC` [II-91, 5-Chloro-N2-(3,4-dimethoxy-5-methylphenyl)-N4-[(4-(dimethylamino)sulfonylamino)methylphenyl]-2,4-pyrimidinediamine] registered an IC50 of 142 nM.
Take “5-Methyl-N4-[4-(N-cyclopropylsulfonylamino)methylphenyl]-N2-[2,4-dimethyl-5-chlorophenyl]-2,4-pyrimidinediamine [II-212]”: half-maximal inhibition (IC50) required 2200 nM.
For “5-Methyl-N4-[4-(N-cyclopropylsulfonylamino)methylphenyl]-N2-[4-(1-morpholinomethyl)phenyl]-2,4-pyrimidinediamine [II-222]” the value was 946 nM; for “5-Chloro-N4-[3-(N-cyclopropylsulfonylamino)methylphenyl]-N2-[4-(N-methylpiperizin-4-yl)phenyl]-2,4-pyrimidinediamine [II-191]”, 466 nM.
As for `CN1CCN(c2ccc(Nc3ncc(Cl)c(Nc4ccc(CCNS(=O)(=O)C5CC5)cc4)n3)c(F)c2)CC1` [II-56, 5-Chloro-N4[4-(N-cyclopropylsulfonylamino)ethylphenyl]-N2-[4-(4-methylpiperazino)-2-fluorophenyl]-2,4-pyrimidinediamine], the midpoint of inhibition, the IC50, lay at 639 nM.
Regarding `CCc1cnc(Nc2cc(C)c(OC)c(Cl)c2)nc1Nc1ccc(CNS(=O)(=O)C2CC2)cc1` [II-83, N2-(3-Chloro-4-methoxy-5-methylphenyl)-N4-[4-(N-cyclopropylsulfonylamino)methylphenyl]-5-ethyl-2,4-pyrimidinediamine], half-maximal inhibition (IC50) required 1390 nM. This IC50 is about 2.2-fold higher than that of the compound before.
Next, `CCNS(=O)(=O)NCc1ccc(Nc2nc(Nc3ccc(N4CCN(CC)CC4)cc3)ncc2C)cc1` [II-125, N4-[(4-(ethylamino)sulfonylamino)methylphenyl]-N2-[4-(4-ethyl-1-piperazinyl)phenyl]-5-methyl-2,4-pyrimidinediamine]: 512 nM.
Consider `CCN1CCN(c2ccc(Nc3ncc(Cl)c(Nc4ccc(CCNS(=O)(=O)C5CC5)cc4)n3)c(C(F)(F)F)c2)CC1` [II-57, 5-Chloro-N4[4-(N-cyclopropylsulfonylamino)ethylphenyl]-N2-[4-(4-ethylpiperazino)-2-trifluoromethylphenyl]-2,4-pyrimidinediamine], for which 1700 nM corresponded to half-maximal inhibition (IC50).
Next, `CC(C)(C)Oc1ccc(Nc2ncc(Cl)c(Nc3ccc(CCNS(=O)(=O)C4CC4)cc3)n2)cc1` [II-47, 5-Chloro-N4[4-(N-cyclopropylsulfonylamino)ethylphenyl]-N2-[4-(2,6-dimethyl-ethoxy)phenyl]-2,4-pyrimidinediamine]: 487 nM; `CCNS(=O)(=O)NCc1cccc(Nc2nc(Nc3ccc(N4CCN(C)CC4)c(C)c3)ncc2Cl)c1` [II-132, 5-Chloro-N4-[(3-(ethylamino)sulfonylamino)methylphenyl]-N2-[3-methyl-4-(4-methyl-1-piperazinyl)phenyl]-2,4-pyrimidinediamine]: 1630 nM.
For the compound `O=S(=O)(NCc1ccc(Nc2nc(Nc3ccc(CN4CCOCC4)cc3)ncc2Cl)cc1)C1CC1` [II-223, 5-Chloro-N4-[4-(N-cyclopropylsulfonylamino)methylphenyl]-N2-[4-(1-morpholinomethyl)phenyl]-2,4-pyrimidinediamine], it took 733 nM to reach half-maximal inhibition (IC50).
For `COc1cc(Nc2ncc(C)c(Nc3ccc(CNS(=O)(=O)NC4CC4)cc3)n2)cc(C)c1OC` [II-166, N4-[4-((N-Cyclopropylamino)sulfonylamino)methylphenyl]-N2-(3,4-dimethoxy-5-methylphenyl)-5-methyl-2,4-pyrimidinediamine] the value was 247 nM; for `COc1c(C)cc(Nc2ncc(C)c(Nc3ccc(CNS(=O)(=O)N(C)C)cc3)n2)cc1Cl` [II-101, 5-Methyl-N2-(3-chloro-4-methoxy-5-methylphenyl)-N4-[(4-(dimethylamino)sulfonylamino)methylphenyl]-2,4-pyrimidinediamine], 194 nM; for `CCN1CCN(c2ccc(Nc3ncc(C)c(Nc4ccc(CNS(=O)(=O)N(C)C)cc4)n3)cc2)CC1` [II-107, N4-[(4-(Dimethylamino)sulfonylamino)methylphenyl]-5-methyl-N2-[4-(4-ethyl-1-piperazinyl)phenyl]-2,4-pyrimidinediamine], 316 nM.
Regarding `CCNS(=O)(=O)NCc1cccc(Nc2nc(Nc3cc(C)c(OC)c(C)c3)ncc2Cl)c1` [II-129, 5-Chloro-N2-(3,5-dimethyl-4-methoxyphenyl)-N4-[(3-(ethylamino)sulfonylamino)methylphenyl]-2,4-pyrimidinediamine], half-maximal inhibition (IC50) required 127 nM. This IC50 lies about 2.5-fold lower than the previous one.
`CCS(=O)(=O)N1CCc2c(cccc2Nc2nc(Nc3ccc(N4CCN(C)CC4)nc3)ncc2Cl)C1` [VI-3, 5-Chloro-N2-[6-(4-methyl-1-piperazinyl)-3-pyridinyl]-N4-[1,2,3,4-tetrahydro-2-(ethylsulfonyl)-5-isoquinolinyl]-2,4-pyrimidinediamine]: the IC50 turned out to be 1270 nM.
Compound `CN1CCN(c2ccc(Nc3nccc(Nc4cccc(S(=O)(=O)NC(C)(C)C)c4)n3)cc2)CC1` [I-19, N4-[3-(N-tert-butylsulfonyl)phenyl]-N2-[4-(4-methylpiperazine)-phenyl]-2,4-pyrimidinediamine] had an IC50 of 603 nM.
